The results in this text go back to ChEMBL document CHEMBL3751703, “Structure-based design of a bisphosphonate 5(3)-deoxyribonucleotidase inhibitor” (Medchemcomm, 2015).

Assay [1] has as its target 5'(3')-deoxyribonucleotidase, cytosolic type (Homo sapiens, UniProt Q8TCD5). As to the kind of experiment: Inhibition of N-terminal hexaHis-tagged human cytosolic 5'(3')-deoxynucleotidase using dUMP as substrate.
In assay [2] the target is 5'(3')-deoxyribonucleotidase, mitochondrial (Homo sapiens, UniProt Q9NPB1). As to the kind of experiment: Inhibition of N-terminal hexaHis-tagged human mitochondrial 5'(3')-deoxynucleotidase using dUMP as substrate.
The species entered for the next assay is Homo sapiens. In words: Selectivity ratio of Ki for N-terminal hexaHis-tagged human cytosolic 5'(3')-deoxynucleotidase to Ki for N-terminal hexaHis-tagged human mitochondrial 5'(3')-deoxynucleotidase.

Each structure is given as a SMILES string.

Sequence of 5'(3')-deoxyribonucleotidase, mitochondrial (Q9NPB1 whole entry): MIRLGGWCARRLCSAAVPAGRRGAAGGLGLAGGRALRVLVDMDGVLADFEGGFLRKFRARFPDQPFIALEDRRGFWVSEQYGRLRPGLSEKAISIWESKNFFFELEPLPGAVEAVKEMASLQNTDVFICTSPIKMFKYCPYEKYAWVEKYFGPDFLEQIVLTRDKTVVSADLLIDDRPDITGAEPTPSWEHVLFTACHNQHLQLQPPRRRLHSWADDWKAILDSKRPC
Sequence of 5'(3')-deoxyribonucleotidase, cytosolic type (Q8TCD5 whole entry): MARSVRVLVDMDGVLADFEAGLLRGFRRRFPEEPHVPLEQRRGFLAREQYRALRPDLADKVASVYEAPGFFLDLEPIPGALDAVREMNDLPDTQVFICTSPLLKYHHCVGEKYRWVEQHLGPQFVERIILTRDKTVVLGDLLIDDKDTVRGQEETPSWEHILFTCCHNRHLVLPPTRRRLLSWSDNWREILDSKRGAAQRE

Turning to `O=c1[nH]c(=O)n([C@H]2C[C@H]3O[C@](c4ccccc4)(P(=O)(O)O)OC[C@H]3O2)cc1/C=C/P(=O)(O)O`, the Ki (as a rule, the equilibrium dissociation constant of an inhibitor or competing ligand from its target) in assay [1] came to 21.7 µM; in assay [2], 0.128 µM. For the same compound, the Ratio Ki in the assay filed under Homo sapiens is 20.
